What was measured:
Experiment in all cases: relative viability (nuclei count vs DMSO), 5 days (fraction); higher = more cells survive
KIN001-266 + AZD7762 = compound: CCN1CCC(CC1)N2C=C(N=N2)CNC3=CC4=C(C(=CN=C4C(=C3)Cl)C#N)NC5=CC(=C(C=C5)F)Cl [KIN001-266] + NC(=O)Nc1cc(-c2cccc(F)c2)sc1C(=O)N[C@H]1CCCNC1 [AZD7762] (partner 0.2 µM)
Method in brief: (§1)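 Relative viability equals treated-well nuclei counts divided by vehicle-well nuclei counts. Counts came from 4× images of lung cancer cell lines grown in 1536-well plates for 5 days after pin-tool dosing on the day after seeding. Dosing used one drug alone or a fixed anchor-drug dose plus five library-drug doses (not always all listed) in √10 steps, and values are medians of duplicate plates.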

KIN001-266 + Trametinib = compound: CCN1CCC(CC1)N2C=C(N=N2)CNC3=CC4=C(C(=CN=C4C(=C3)Cl)C#N)NC5=CC(=C(C=C5)F)Cl [KIN001-266] + CC(=O)Nc1cccc(-n2c(=O)n(C3CC3)c(=O)c3c(Nc4ccc(I)cc4F)n(C)c(=O)c(C)c32)c1 [Trametinib] (partner 0.02 µM)
Method in brief: as §1

KIN001-266 + Tozasertib = compound: CCN1CCC(CC1)N2C=C(N=N2)CNC3=CC4=C(C(=CN=C4C(=C3)Cl)C#N)NC5=CC(=C(C=C5)F)Cl [KIN001-266] + Cc1cc(Nc2cc(N3CCN(C)CC3)nc(Sc3ccc(NC(=O)C4CC4)cc3)n2)n[nH]1 [Tozasertib] (partner 0.1 µM)
Method in brief: as §1

KIN001-266 = compound: CCN1CCC(CC1)N2C=C(N=N2)CNC3=CC4=C(C(=CN=C4C(=C3)Cl)C#N)NC5=CC(=C(C=C5)F)Cl [KIN001-266]
Method in brief: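 Lung cancer cell lines in 1536-well plates were kept overnight at 37 °C, then pinned with five library-drug doses (not always all listed) spaced by √10 on vehicle-anchored plates. After 5 days without medium change, cells were fixed, permeabilised and Hoechst-stained in one step, imaged at 4×, and nuclei were counted with MetaXpress. Viability is treated-well nuclei divided by vehicle-well nuclei, taken as the median over plates. Plates passed only with control CV below 25% and at least one doubling.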

Cell Line	relative viability (KIN001-266 + AZD7762; first compound 0.08 µM)	relative viability (KIN001-266 + AZD7762; first compound 0.253 µM)	relative viability (KIN001-266 + AZD7762; first compound 0.8 µM)	relative viability (KIN001-266 + AZD7762; first compound 2.53 µM)	relative viability (KIN001-266 + AZD7762; first compound 8 µM)	relative viability (KIN001-266 + Trametinib; first compound 0.08 µM)	relative viability (KIN001-266 + Trametinib; first compound 0.253 µM)	relative viability (KIN001-266 + Trametinib; first compound 0.8 µM)	relative viability (KIN001-266 + Trametinib; first compound 2.53 µM)	relative viability (KIN001-266 + Trametinib; first compound 8 µM)	relative viability (KIN001-266 + Tozasertib; first compound 0.08 µM)	relative viability (KIN001-266 + Tozasertib; first compound 0.253 µM)	relative viability (KIN001-266 + Tozasertib; first compound 0.8 µM)	relative viability (KIN001-266 + Tozasertib; first compound 2.53 µM)	relative viability (KIN001-266 + Tozasertib; first compound 8 µM)	relative viability (KIN001-266; 0.08 µM)	relative viability (KIN001-266; 0.253 µM)	relative viability (KIN001-266; 0.8 µM)	relative viability (KIN001-266; 2.53 µM)	relative viability (KIN001-266; 8 µM)
H3255	0.846	0.731	0.792	0.908	0.8	0.545	0.581	0.643	0.659	0.484	0.699	0.601	0.502	0.499	0.512	1.01	1.06	0.96	0.96	0.78
EPLC-272H	0.304	0.212	0.191	0.185	0.371	0.295	0.273	0.284	0.27	0.275	0.258	0.377	0.383	0.244	0.208	1.08	1	0.915	0.893	0.686
NCI-H1703	–	–	–	–	0.112	–	–	–	–	–	–	–	–	–	–	1.06	0.873	0.954	0.789	0.806
NCI-H2228	–	–	–	–	–	0.564	0.448	0.457	0.357	0.402	0.312	0.255	0.266	0.192	0.264	1.03	1.02	1.02	0.903	0.808
NCI-H520	–	–	–	–	–	0.727	0.628	0.561	0.624	0.645	0.426	0.441	0.434	0.466	0.413	1.01	1.05	1.08	0.943	1.01
EBC-1	–	–	–	–	–	–	–	–	–	–	–	–	–	–	–	1.04	1.02	0.954	0.988	0.704
NCI-H661	–	–	–	–	–	0.566	0.624	0.595	0.5	0.435	0.364	0.377	0.373	0.353	0.353	0.956	0.997	1.01	0.958	1.01
NCI-H1299	–	–	–	–	–	–	–	–	–	–	–	–	–	–	–	0.987	0.996	1	0.928	0.869
SK-LU-1	–	–	–	–	–	0.518	0.451	0.437	0.369	0.429	0.403	0.375	0.322	0.307	0.286	1.09	1	0.987	0.886	0.709
COR-L23	–	–	–	–	–	0.634	0.667	0.651	0.512	0.486	0.19	0.182	0.206	0.164	0.151	1	0.984	1.02	0.983	0.828
NCI-H1650	–	–	–	–	–	0.581	0.602	0.42	0.457	0.373	0.564	0.406	0.372	0.263	0.162	0.964	1.01	0.895	0.805	0.464
IA-LM	–	–	–	–	–	–	–	–	–	–	–	–	–	–	–	0.95	0.956	0.888	1	0.931
NCI-H2009	–	–	–	–	–	0.296	0.313	0.273	0.23	0.253	0.788	0.704	0.808	0.674	0.386	0.988	1.06	1	0.982	0.856
NCI-H1563	–	–	–	–	–	–	–	–	–	–	–	–	–	–	–	0.958	1	1.02	1.04	0.972
SK-MES-1	–	–	–	–	–	0.564	0.562	0.551	0.522	0.47	0.944	0.869	0.934	0.756	0.66	1.02	1.02	0.992	0.942	0.783
UMC-11	–	–	–	–	–	0.741	0.711	0.718	0.506	0.774	0.209	0.215	0.213	0.219	0.213	0.975	0.981	1	0.918	0.857
ABC-1	0.991	0.856	0.745	0.761	0.837	–	–	–	–	–	0.156	0.227	0.199	0.166	0.204	1.03	1.11	1.12	0.959	0.774
SW 1573	–	–	–	–	–	0.575	0.493	0.603	0.557	0.464	0.219	0.186	0.162	0.184	0.224	1.07	0.899	1.04	0.924	0.689
NCI-H1792	0.825	0.66	0.738	0.902	0.516	0.372	0.341	0.43	0.416	0.476	–	–	–	–	–	0.987	0.919	0.856	0.908	1.01
NCI-H2023	–	–	–	–	–	0.51	0.578	0.533	0.447	0.456	0.39	0.341	0.419	0.292	0.184	0.915	0.997	1.15	0.926	0.94
COR-L 105	–	–	–	–	–	0.42	0.517	0.417	0.43	0.455	0.388	0.322	0.381	0.342	0.296	0.942	0.967	0.963	1	0.902

— the supplement of paper PMC10307832
